Experimental data as given in the kinase profiling compilation of Christmann-Franck et al. (2016).

Key:
Experiment in all cases: KINOMEscan competition binding
Conditions in all cases: compound 10.0 µM
[1] = biological target: STK17B (human) (UniProt O94768)
[2] = biological target: RIOK3 (human) (UniProt O14730)
[3] = biological target: ERN1 (human) (UniProt O75460)
[4] = biological target: TAOK3 (human) (UniProt Q9H2K8)
[5] = biological target: BUB1 (human) (UniProt O43683)
[6] = biological target: ERBB3 (human) (UniProt P21860)
[7] = biological target: EPHA4 (human) (UniProt P54764)
[8] = biological target: PIM2 (human) (UniProt Q9P1W9)
PIM2 (human), sequence (Q9P1W9 whole entry, looked up): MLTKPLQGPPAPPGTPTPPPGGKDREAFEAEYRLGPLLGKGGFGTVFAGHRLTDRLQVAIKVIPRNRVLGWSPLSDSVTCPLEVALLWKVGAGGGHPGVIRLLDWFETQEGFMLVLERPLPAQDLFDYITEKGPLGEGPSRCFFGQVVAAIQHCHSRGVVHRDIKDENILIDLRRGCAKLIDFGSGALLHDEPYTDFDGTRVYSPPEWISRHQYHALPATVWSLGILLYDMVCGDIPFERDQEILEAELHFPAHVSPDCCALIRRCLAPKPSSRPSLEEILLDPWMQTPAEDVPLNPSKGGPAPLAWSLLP

[9] = biological target: AURKA (human) (UniProt O14965)
[10] = biological target: DDR1 (human) (UniProt Q08345)
[11] = biological target: PIK3CD (human) (UniProt O00329)
[12] = biological target: BRAF (human) (UniProt P15056)
BRAF (human), sequence (P15056 whole entry, looked up): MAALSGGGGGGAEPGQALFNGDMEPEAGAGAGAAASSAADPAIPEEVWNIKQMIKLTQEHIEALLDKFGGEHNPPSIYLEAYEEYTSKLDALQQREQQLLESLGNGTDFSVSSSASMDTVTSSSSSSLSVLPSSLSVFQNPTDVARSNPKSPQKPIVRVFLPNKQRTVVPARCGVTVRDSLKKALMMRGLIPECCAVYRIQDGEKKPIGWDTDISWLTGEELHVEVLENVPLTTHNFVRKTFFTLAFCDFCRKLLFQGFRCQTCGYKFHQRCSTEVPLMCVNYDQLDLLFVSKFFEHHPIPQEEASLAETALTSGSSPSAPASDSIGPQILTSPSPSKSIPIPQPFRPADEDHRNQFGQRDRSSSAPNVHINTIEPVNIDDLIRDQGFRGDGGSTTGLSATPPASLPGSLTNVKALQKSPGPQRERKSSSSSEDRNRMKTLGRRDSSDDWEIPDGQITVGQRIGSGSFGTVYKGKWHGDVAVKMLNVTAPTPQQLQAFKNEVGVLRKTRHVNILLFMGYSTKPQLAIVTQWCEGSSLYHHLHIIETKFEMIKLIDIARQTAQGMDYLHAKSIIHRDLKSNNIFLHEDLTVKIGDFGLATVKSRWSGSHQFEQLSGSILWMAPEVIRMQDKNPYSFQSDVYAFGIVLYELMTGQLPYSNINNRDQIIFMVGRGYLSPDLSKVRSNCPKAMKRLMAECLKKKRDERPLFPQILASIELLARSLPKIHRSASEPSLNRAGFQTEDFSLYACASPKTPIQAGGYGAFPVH

[13] = system: PIK3CA (human), P42336 [H1047L]
[14] = biological target: NEK2 (human) (UniProt P51955)
[15] = biological target: MAST1 (human) (UniProt Q9Y2H9)
MAST1 (human), sequence (Q9Y2H9 whole entry, looked up): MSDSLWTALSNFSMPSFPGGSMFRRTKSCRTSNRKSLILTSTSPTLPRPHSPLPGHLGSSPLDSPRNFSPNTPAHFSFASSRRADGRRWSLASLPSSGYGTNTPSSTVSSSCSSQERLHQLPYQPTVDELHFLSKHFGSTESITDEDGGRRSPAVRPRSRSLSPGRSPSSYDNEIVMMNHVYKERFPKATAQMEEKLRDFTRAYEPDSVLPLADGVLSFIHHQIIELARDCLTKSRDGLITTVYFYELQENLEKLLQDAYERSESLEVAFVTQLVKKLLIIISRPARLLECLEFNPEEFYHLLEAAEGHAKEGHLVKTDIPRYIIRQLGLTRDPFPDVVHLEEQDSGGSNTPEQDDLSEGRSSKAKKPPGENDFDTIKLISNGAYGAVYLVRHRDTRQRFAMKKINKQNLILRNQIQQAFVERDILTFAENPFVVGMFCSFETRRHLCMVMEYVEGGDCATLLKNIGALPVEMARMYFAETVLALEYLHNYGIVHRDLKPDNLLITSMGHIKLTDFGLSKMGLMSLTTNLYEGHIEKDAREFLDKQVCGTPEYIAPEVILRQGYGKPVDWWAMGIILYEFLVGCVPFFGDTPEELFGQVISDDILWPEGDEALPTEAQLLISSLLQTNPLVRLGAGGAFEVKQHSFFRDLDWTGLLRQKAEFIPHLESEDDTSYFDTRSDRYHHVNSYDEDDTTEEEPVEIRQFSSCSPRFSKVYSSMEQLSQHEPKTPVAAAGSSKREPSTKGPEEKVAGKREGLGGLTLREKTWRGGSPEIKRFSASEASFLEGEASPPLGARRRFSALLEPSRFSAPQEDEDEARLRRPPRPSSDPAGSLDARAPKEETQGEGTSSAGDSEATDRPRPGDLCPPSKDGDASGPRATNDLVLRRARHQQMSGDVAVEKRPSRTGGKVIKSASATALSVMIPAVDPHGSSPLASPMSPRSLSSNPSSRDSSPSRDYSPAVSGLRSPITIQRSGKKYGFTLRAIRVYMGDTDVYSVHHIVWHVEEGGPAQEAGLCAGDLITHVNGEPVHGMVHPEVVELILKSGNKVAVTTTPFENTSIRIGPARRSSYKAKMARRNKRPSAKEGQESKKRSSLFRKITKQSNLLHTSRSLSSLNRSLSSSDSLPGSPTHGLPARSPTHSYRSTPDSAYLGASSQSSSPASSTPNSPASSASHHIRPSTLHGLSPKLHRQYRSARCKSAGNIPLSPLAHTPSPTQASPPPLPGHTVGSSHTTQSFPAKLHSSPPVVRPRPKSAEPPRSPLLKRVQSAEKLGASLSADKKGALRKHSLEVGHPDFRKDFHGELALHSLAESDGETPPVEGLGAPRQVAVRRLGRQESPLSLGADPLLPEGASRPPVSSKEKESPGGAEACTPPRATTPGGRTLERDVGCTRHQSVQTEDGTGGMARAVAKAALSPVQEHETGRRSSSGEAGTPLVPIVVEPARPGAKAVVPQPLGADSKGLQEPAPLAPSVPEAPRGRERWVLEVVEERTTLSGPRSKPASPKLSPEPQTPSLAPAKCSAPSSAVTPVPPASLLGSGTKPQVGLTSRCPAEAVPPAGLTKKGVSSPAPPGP

[16] = biological target: ZAP70 (human) (UniProt P43403)
[17] = biological target: SIK1 (human) (UniProt P57059)
[18] = biological target: INSR (human) (UniProt P06213)
INSR (human), sequence (P06213 whole entry, looked up): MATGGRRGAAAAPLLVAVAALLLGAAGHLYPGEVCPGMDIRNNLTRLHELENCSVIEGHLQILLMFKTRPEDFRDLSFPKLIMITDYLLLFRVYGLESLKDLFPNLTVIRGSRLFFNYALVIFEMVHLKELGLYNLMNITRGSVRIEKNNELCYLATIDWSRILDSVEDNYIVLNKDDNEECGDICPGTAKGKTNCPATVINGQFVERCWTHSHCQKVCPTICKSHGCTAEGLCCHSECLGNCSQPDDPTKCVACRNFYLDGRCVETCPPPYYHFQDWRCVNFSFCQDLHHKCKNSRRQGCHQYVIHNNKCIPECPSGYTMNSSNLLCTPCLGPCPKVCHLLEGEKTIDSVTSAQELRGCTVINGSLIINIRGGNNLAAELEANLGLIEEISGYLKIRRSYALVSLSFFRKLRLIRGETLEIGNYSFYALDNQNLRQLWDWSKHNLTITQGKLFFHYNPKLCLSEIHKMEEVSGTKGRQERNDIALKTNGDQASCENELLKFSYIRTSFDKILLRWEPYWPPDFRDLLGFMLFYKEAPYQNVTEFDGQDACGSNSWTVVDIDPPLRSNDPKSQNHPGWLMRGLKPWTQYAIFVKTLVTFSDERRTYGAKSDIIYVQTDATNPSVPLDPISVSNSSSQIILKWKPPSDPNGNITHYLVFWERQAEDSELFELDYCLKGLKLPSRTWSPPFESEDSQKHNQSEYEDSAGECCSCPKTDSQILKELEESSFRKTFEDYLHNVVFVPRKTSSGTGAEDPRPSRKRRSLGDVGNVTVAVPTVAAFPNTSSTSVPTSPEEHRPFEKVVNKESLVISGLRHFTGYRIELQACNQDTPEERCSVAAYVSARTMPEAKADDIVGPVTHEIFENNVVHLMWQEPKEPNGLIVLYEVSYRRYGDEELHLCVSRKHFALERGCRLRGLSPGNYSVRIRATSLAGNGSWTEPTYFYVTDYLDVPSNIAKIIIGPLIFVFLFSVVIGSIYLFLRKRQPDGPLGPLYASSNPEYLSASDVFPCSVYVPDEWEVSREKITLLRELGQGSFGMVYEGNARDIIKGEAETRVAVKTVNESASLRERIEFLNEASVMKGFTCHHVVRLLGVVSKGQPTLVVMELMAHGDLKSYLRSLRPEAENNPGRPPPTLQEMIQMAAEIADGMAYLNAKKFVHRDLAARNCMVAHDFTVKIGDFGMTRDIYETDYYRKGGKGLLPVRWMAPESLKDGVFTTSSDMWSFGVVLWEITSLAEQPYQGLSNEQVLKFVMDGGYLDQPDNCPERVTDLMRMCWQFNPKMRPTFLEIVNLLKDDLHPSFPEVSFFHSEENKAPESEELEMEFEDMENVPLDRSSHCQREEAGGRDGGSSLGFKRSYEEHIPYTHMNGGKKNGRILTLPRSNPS

[19] = biological target: PRPF4B (human) (UniProt Q13523)
[20] = biological target: SRPK3 (human) (UniProt Q9UPE1)
[21] = biological target: GRK7 (human) (UniProt Q8WTQ7)
[22] = biological target: NUAK2 (human) (UniProt Q9H093)
[23] = biological target: TBK1 (human) (UniProt Q9UHD2)
[24] = biological target: GSG2 (human) (UniProt Q8TF76)
[25] = biological target: MYO3B (human) (UniProt Q8WXR4)
[26] = biological target: CSNK1A1 (human) (UniProt P48729)
[27] = biological target: MAP4K2 (human) (UniProt Q12851)
[28] = biological target: MAK (human) (UniProt P20794)
[29] = biological target: MAPK14 (human) (UniProt Q16539)
[30] = biological target: PRKX (human) (UniProt P51817)
[31] = biological target: CDKL3 (human) (UniProt Q8IVW4)
[32] = biological target: PKN3 (M.tuberculosis) (UniProt Q6P5Z2)
[33] = biological target: DAPK2 (human) (UniProt Q9UIK4)
DAPK2 (human), sequence (Q9UIK4 whole entry, looked up): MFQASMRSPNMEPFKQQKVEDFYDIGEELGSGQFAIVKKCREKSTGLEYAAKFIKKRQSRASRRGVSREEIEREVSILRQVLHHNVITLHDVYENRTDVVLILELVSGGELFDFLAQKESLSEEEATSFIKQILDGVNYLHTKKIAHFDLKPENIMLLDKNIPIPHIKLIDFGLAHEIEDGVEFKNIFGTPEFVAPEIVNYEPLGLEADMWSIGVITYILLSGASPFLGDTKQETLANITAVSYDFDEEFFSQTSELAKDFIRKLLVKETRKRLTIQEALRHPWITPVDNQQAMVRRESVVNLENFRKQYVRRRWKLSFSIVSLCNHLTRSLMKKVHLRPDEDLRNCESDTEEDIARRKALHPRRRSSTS

[34] = biological target: SBK1 (human) (UniProt Q52WX2)
[35] = biological target: NEK1 (human) (UniProt Q96PY6)
[36] = biological target: EPHA6 (human) (UniProt Q9UF33)
[37] = biological target: ICK (human) (UniProt Q9UPZ9)
ICK (human), sequence (Q9UPZ9 whole entry, looked up): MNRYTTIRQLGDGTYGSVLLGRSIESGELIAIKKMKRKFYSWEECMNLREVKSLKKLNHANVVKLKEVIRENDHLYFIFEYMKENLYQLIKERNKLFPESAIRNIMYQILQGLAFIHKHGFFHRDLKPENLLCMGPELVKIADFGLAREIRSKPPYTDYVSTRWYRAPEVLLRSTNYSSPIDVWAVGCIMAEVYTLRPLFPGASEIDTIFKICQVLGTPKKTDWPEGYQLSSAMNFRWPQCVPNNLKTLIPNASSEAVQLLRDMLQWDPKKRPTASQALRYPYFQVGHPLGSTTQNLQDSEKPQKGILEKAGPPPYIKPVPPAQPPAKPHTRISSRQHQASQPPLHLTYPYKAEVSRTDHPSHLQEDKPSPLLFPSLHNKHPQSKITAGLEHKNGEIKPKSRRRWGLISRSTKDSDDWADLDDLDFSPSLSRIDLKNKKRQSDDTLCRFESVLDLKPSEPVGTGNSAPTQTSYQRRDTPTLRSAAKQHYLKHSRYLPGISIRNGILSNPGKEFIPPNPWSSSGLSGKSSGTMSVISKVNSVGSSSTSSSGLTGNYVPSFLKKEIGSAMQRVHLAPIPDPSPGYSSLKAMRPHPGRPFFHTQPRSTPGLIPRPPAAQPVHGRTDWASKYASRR

[38] = biological target: WNK3 (human) (UniProt Q9BYP7)
[39] = biological target: SGK1 (human) (UniProt O00141)
[40] = biological target: AKT3 (human) (UniProt Q9Y243)

| SMILES | kinase still bound, per cent of control [1] [%] | kinase still bound, per cent of control [2] [%] | kinase still bound, per cent of control [3] [%] | kinase still bound, per cent of control [4] [%] | kinase still bound, per cent of control [6] [%] | kinase still bound, per cent of control [7] [%] | kinase still bound, per cent of control [8] [%] | kinase still bound, per cent of control [9] [%] | kinase still bound, per cent of control [10] [%] | kinase still bound, per cent of control [11] [%] | kinase still bound, per cent of control [12] [%] | kinase still bound, per cent of control [13] [%] | kinase still bound, per cent of control [14] [%] | kinase still bound, per cent of control [15] [%] | kinase still bound, per cent of control [16] [%] | kinase still bound, per cent of control [17] [%] | kinase still bound, per cent of control [18] [%] | kinase still bound, per cent of control [19] [%] | kinase still bound, per cent of control [20] [%] | kinase still bound, per cent of control [21] [%] | further results |
| --- | --- | --- | --- | --- | --- | --- | --- | --- | --- | --- | --- | --- | --- | --- | --- | --- | --- | --- | --- | --- | --- |
| COc1cc2ncnc(Nc3cccc(Cl)c3)c2cc1OC | 40 | 78 | 41 | 78 | 18 | 72 | 74 | 43 | 1.9 | 71 | 64 | 56 | 92 | 79 | 78 | 100 | 62 | 84 | 93 | 75 | kinase still bound, per cent of control [5]: 0.3%; kinase still bound, per cent of control [22]: 49%; kinase still bound, per cent of control [23]: 45%; kinase still bound, per cent of control [24]: 100%; kinase still bound, per cent of control [25]: 100%; kinase still bound, per cent of control [26]: 35%; kinase still bound, per cent of control [27]: 36%; kinase still bound, per cent of control [28]: 100%; kinase still bound, per cent of control [29]: 63%; kinase still bound, per cent of control [30]: 100%; kinase still bound, per cent of control [31]: 76%; kinase still bound, per cent of control [32]: 100%; kinase still bound, per cent of control [33]: 60%; kinase still bound, per cent of control [34]: 25%; kinase still bound, per cent of control [35]: 77%; kinase still bound, per cent of control [36]: 11%; kinase still bound, per cent of control [37]: 100%; kinase still bound, per cent of control [38]: 78%; kinase still bound, per cent of control [39]: 68% |
| COc1cc2c(Nc3ccc(NC(=O)c4ccccc4)cc3)ncnc2cc1OCCCN1CCOCC1 | 100 | 100 | 74 | 95 | 1 | 98 | 100 | 8.6 | 36 | 100 | 100 | 99 | 51 | 100 | 100 | 82 | 77 | 97 | 100 | 71 | kinase still bound, per cent of control [40]: 100%; kinase still bound, per cent of control [22]: 94%; kinase still bound, per cent of control [23]: 66%; kinase still bound, per cent of control [25]: 100%; kinase still bound, per cent of control [26]: 63%; kinase still bound, per cent of control [27]: 39%; kinase still bound, per cent of control [28]: 59%; kinase still bound, per cent of control [29]: 100%; kinase still bound, per cent of control [30]: 81%; kinase still bound, per cent of control [31]: 100%; kinase still bound, per cent of control [32]: 37%; kinase still bound, per cent of control [33]: 90%; kinase still bound, per cent of control [34]: 92%; kinase still bound, per cent of control [35]: 81%; kinase still bound, per cent of control [36]: 85%; kinase still bound, per cent of control [37]: 100% |
| CCCS(=O)(=O)Nc1ccc(F)c(C(=O)c2c[nH]c3ncc(Cl)cc23)c1F | 68 | 100 | 78 | 61 | 28 | 100 | 80 | 60 | 1.6 | 84 | 0 | 100 | 49 | 100 | 85 | 2.6 | 83 | 82 | 100 | 76 | kinase still bound, per cent of control [40]: 100%; kinase still bound, per cent of control [22]: 41%; kinase still bound, per cent of control [23]: 100%; kinase still bound, per cent of control [25]: 47%; kinase still bound, per cent of control [26]: 84%; kinase still bound, per cent of control [27]: 74%; kinase still bound, per cent of control [28]: 71%; kinase still bound, per cent of control [29]: 60%; kinase still bound, per cent of control [30]: 100%; kinase still bound, per cent of control [31]: 100%; kinase still bound, per cent of control [32]: 46%; kinase still bound, per cent of control [33]: 80%; kinase still bound, per cent of control [34]: 92%; kinase still bound, per cent of control [35]: 72%; kinase still bound, per cent of control [36]: 100%; kinase still bound, per cent of control [37]: 63% |
